Values joined by “and” are separate entries in the source; they are usually repeats but may differ in a detail not shown here. Equal values may be shown once. Read-outs that look alike come from different tables or passages of the source.
Experiments:
Test in all cases: preservation efficacy test (PET), European Pharmacopoeia 5.1.3
Type in all cases: cell-based
Pseudomonas aeruginosa = conditions: for germ count PA, 2 days / germ count PA, 7 days / germ count PA, 14 days / germ count PA, 28 days: o/w emulsion (Table 53)
Escherichia coli = conditions: for germ count EC, 2 days / germ count EC, 7 days / germ count EC, 14 days / germ count EC, 28 days: o/w emulsion (Table 53)
Staphylococcus aureus = conditions: for germ count SA, 2 days / germ count SA, 7 days / germ count SA, 14 days / germ count SA, 28 days: o/w emulsion (Table 53)
Candida albicans = test system: Candida albicans
Aspergillus brasiliensis = test system: Aspergillus brasiliensis
[1] = in wet wipes, 14 days after inoculation
[2] = in wet wipes, 28 days after inoculation
[3] = 2 days after inoculation, substance at given % in test formulation
[4] = 7 days after inoculation, substance at given % in test formulation
[5] = 14 days after inoculation, substance at given % in test formulation
[6] = 28 days after inoculation, substance at given % in test formulation
[7] = PA, 7 days after inoculation, use concentration in label
[8] = PA, 14 days after inoculation, use concentration in label
[9] = PA, 28 days after inoculation, use concentration in label
[10] = EC, 7 days after inoculation, use concentration in label
[11] = EC, 14 days after inoculation, use concentration in label
[12] = EC, 28 days after inoculation, use concentration in label
[13] = CA, 28 days after inoculation, use concentration in label
[14] = SA, 7 days after inoculation, use concentration in label
[15] = SA, 14 days after inoculation, use concentration in label
[16] = SA, 28 days after inoculation, use concentration in label
[17] = 28 days after inoculation, o/w emulsion (Table 53)

## CCCCCCC(O)CO (centres unmarked) [0.1% 1,2-octanediol]
Pseudomonas aeruginosa; [1]
  PA germ count, 14 days: 750.000
Pseudomonas aeruginosa; [2]
  PA germ count, 28 days: 350.000
Escherichia coli; [2]
  EC germ count, 28 days: 2.300
Staphylococcus aureus; in wet wipes, 2 days after inoculation
  SA germ count, 2 days: 425
Staphylococcus aureus; in wet wipes, 7 days after inoculation
  SA germ count, 7 days: 50
Staphylococcus aureus; [1]
  SA germ count, 14 days: 50
Staphylococcus aureus; [2]
  SA germ count, 28 days: 50

## CC(CO)CCCC1CCCCC1 (centres unmarked) [1.0% 2-Methyl 5-Cyclohexylpentanol]
Pseudomonas aeruginosa; [3]
  PA germ count, 2 days: 670.000
Pseudomonas aeruginosa; [4]
  PA germ count, 7 days: 570.000
Pseudomonas aeruginosa; [5]
  PA germ count, 14 days: 780.000
Escherichia coli; [3]
  EC germ count, 2 days: 960.000
Escherichia coli; [4]
  EC germ count, 7 days: 490.000
Escherichia coli; [5]
  EC germ count, 14 days: 310.000
Escherichia coli; [6]
  EC germ count, 28 days: 380.000
Candida albicans; [6]
  CA germ count, 28 days: 630.000
Staphylococcus aureus; [3]
  SA germ count, 2 days: 110.000
Staphylococcus aureus; [4]
  SA germ count, 7 days: 760
Staphylococcus aureus; [5]
  SA germ count, 14 days: 1
Staphylococcus aureus; [6]
  SA germ count, 28 days: 1

## O=C([O-])c1ccccc1.[Na+] [0.1% Sodium Benzoate]
Pseudomonas aeruginosa
  PA germ count, 28 days: 18.000 and 10
Aspergillus brasiliensis
  AB germ count, 14 days: 20.000
  AB germ count, 28 days: 4.800
Staphylococcus aureus
  SA germ count, 2 days: 14.000 and 10
  SA germ count, 7 days: 9.800 and 10

## CCCCCC(O)CO (centres unmarked) [0.3% 1.2-heptanediol]
Pseudomonas aeruginosa; PA, 2 days after inoculation, use concentration in label
  count at 2 days: 1
Pseudomonas aeruginosa; [7]
  count at 7 days: 1
Pseudomonas aeruginosa; [8]
  count at 14 days: 1
Pseudomonas aeruginosa; [9]
  count at 28 days: 1
Escherichia coli; EC, 2 days after inoculation, use concentration in label
  count at 2 days: 130.000
Escherichia coli; [10]
  count at 7 days: 2.400
Escherichia coli; [11]
  count at 14 days: 1
Escherichia coli; [12]
  count at 28 days: 1
Candida albicans; CA, 14 days after inoculation, use concentration in label
  count at 14 days: 260.000
Candida albicans; [13]
  count at 28 days: 150.000
Staphylococcus aureus; SA, 2 days after inoculation, use concentration in label
  count at 2 days: 16.000
Staphylococcus aureus; [14]
  count at 7 days: 1
Staphylococcus aureus; [15]
  count at 14 days: 1
Staphylococcus aureus; [16]
  count at 28 days: 1

## Cc1cc(O)ccc1C(C)C [0.1% o-Cymen-5-ol]
Pseudomonas aeruginosa; [7]
  count at 7 days: 250.000
Pseudomonas aeruginosa; [8]
  count at 14 days: 900.000
Pseudomonas aeruginosa; [9]
  count at 28 days: 460.000
Escherichia coli; [10]
  count at 7 days: 270.000
Escherichia coli; [11]
  count at 14 days: 270.000
Escherichia coli; [12]
  count at 28 days: 51.000
Candida albicans; [13]
  count at 28 days: 690.000
Staphylococcus aureus; [14]
  count at 7 days: 18.000
Staphylococcus aureus; [15]
  count at 14 days: 1
Staphylococcus aureus; [16]
  count at 28 days: 1

## CCCCCC(O)C(C)O (centres unmarked) [0.1% 2,3-Octanediol]
Pseudomonas aeruginosa; [5]
  PA germ count, 14 days: 1
Pseudomonas aeruginosa; [6]
  PA germ count, 28 days: 1
Escherichia coli; [3]
  EC germ count, 2 days: 690.000
Escherichia coli; [4]
  EC germ count, 7 days: 11.000
Escherichia coli; [5]
  EC germ count, 14 days: 1.200
Escherichia coli; [6]
  EC germ count, 28 days: 1
Staphylococcus aureus; [4]
  SA germ count, 7 days: 9.500
Staphylococcus aureus; [5]
  SA germ count, 14 days: 1
Staphylococcus aureus; [6]
  SA germ count, 28 days: 1

## CCCCCCC(O)C(C)O (centres unmarked) [0.2% 2,3 Nonanediol]
Pseudomonas aeruginosa; 2 days after inoculation
  germ count PA, 2 days: 1
Pseudomonas aeruginosa; 7 days after inoculation
  germ count PA, 7 days: 1
Pseudomonas aeruginosa; 14 days after inoculation
  germ count PA, 14 days: 1
Pseudomonas aeruginosa; 28 days after inoculation
  germ count PA, 28 days: 1
Escherichia coli; 2 days after inoculation
  germ count EC, 2 days: 860.000
Escherichia coli; 7 days after inoculation
  germ count EC, 7 days: 230.000
Escherichia coli; 14 days after inoculation
  germ count EC, 14 days: 760
Escherichia coli; 28 days after inoculation
  germ count EC, 28 days: 1
Candida albicans; 7 days after inoculation, o/w emulsion (Table 53)
  germ count CA, 7 days: 440.000
Candida albicans; 14 days after inoculation, o/w emulsion (Table 53)
  germ count CA, 14 days: 160.000
Candida albicans; [17]
  germ count CA, 28 days: 3.800
Staphylococcus aureus; 2 days after inoculation
  germ count SA, 2 days: 880
Staphylococcus aureus; 7 days after inoculation
  germ count SA, 7 days: 1
Staphylococcus aureus; 14 days after inoculation
  germ count SA, 14 days: 1
Staphylococcus aureus; 28 days after inoculation
  germ count SA, 28 days: 1

## CCCCC(CC)COCC(O)CO (centres unmarked) [Ethylhexlglycerin, Ethylhexylglycerin, reference compound]
Pseudomonas aeruginosa; 2 days after inoculation
  germ count PA, 2 days: 1
Pseudomonas aeruginosa; 7 days after inoculation
  germ count PA, 7 days: 1
Pseudomonas aeruginosa; 14 days after inoculation
  germ count PA, 14 days: 1
Pseudomonas aeruginosa; 28 days after inoculation
  germ count PA, 28 days: 1
Pseudomonas aeruginosa; PET, Pseudomonas aeruginosa (PA), 2 days after inoculation
  number of microorganisms, 2 days: 1
Pseudomonas aeruginosa; PET, Pseudomonas aeruginosa (PA), 7 days after inoculation
  number of microorganisms, 7 days: 1
Pseudomonas aeruginosa; PET, Pseudomonas aeruginosa (PA), 14 days after inoculation
  number of microorganisms, 14 days: 1
Pseudomonas aeruginosa; PET, Pseudomonas aeruginosa (PA), 28 days after inoculation
  number of microorganisms, 28 days: 1
Escherichia coli; 2 days after inoculation
  germ count EC, 2 days: 10.000
Escherichia coli; 7 days after inoculation
  germ count EC, 7 days: 82
Escherichia coli; 14 days after inoculation
  germ count EC, 14 days: 1
Escherichia coli; 28 days after inoculation
  germ count EC, 28 days: 1
Escherichia coli; PET, Escherichia coli (EC), 2 days after inoculation
  number of microorganisms, 2 days: 10.000
Escherichia coli; PET, Escherichia coli (EC), 7 days after inoculation
  number of microorganisms, 7 days: 82
Escherichia coli; PET, Escherichia coli (EC), 14 days after inoculation
  number of microorganisms, 14 days: 1
Escherichia coli; PET, Escherichia coli (EC), 28 days after inoculation
  number of microorganisms, 28 days: 1
Candida albicans; [17]
  germ count CA, 28 days: 950.000
Candida albicans; PET, Candida albicans (CA), 28 days after inoculation
  number of microorganisms, 28 days: 950.000
Staphylococcus aureus; 2 days after inoculation
  germ count SA, 2 days: 240.000
Staphylococcus aureus; 7 days after inoculation
  germ count SA, 7 days: 36
Staphylococcus aureus; 14 days after inoculation
  germ count SA, 14 days: 1
Staphylococcus aureus; 28 days after inoculation
  germ count SA, 28 days: 1
Staphylococcus aureus; PET, Staphylococcus aureus (SA), 2 days after inoculation
  number of microorganisms, 2 days: 240.000
Staphylococcus aureus; PET, Staphylococcus aureus (SA), 7 days after inoculation
  number of microorganisms, 7 days: 36
Staphylococcus aureus; PET, Staphylococcus aureus (SA), 14 days after inoculation
  number of microorganisms, 14 days: 1
Staphylococcus aureus; PET, Staphylococcus aureus (SA), 28 days after inoculation
  number of microorganisms, 28 days: 1

Source: patent US20230293407A1, “Compositions Comprising (Bio)-Alkanediols with Antimicrobials for Product Protection” (Symrise AG, priority 2020, published 2023)
